According to patent US20240197756A1, “METHODS OF TREATMENT WITH NEUROACTIVE STEROIDS” (priority 2021, published 2024):
Entries after “also recorded” stand apart in the source; their conditions may differ. Read-outs that look alike come from different tables or passages of the source.

Experiments:
Format in all cases: in vivo, human
[1] = Example 3 Part A: oral suspension administered at 4 p.m. vs 8 p.m., plasma pharmacokinetics; conditions: for AUCinf / Cmax / AUC(0-inf) / Tmax / half-life: human, in vivo; for AUCinf / Cmax / AUC(0-inf) / Tmax: po; for AUC(0-inf): AUCinf
Method: Patients with severe major depressive disorder (MDD) aged 18 to 65 years were treated with an oral suspension or tablet of Compound 1 to study the effect of food and time of administration on the pharmacokinetics, as well as the safety and tolerability of these formulations.
Part A is an open-label, non-randomized, fixed-sequence crossover design to evaluate Compound 1 at 2 different administration times (4 p.m., approximately 4 hours after lunch and 2 hours prior to dinner, and at 8 p.m., approximately 4 hours after dinner). 16 participants were administered an oral suspension of Compound 1.
Preliminary pharmacokinetics data from Part A, where 45 mg and 60 mg of oral suspension were administered (Cohort 1), and Part C, where 40 mg (2×20 mg), 60 mg (3×20 mg) and 80 mg (4×20 mg) of the tablet formulation were administered, have been analyzed and are summarized below.

[2] = test system: patients with severe major depressive disorder (MDD); assay: Open-label study in severe MDD, Part A efficacy (HAM-D); conditions: for patients meeting the HAM-D Response or Remission criteria: Day 15
Method: The study is an open-label, study comprised of two dosing periods, Part A and Part B, during which patients were treated with an oral suspension of Compound 1. Part A was an open-label assessment of two dose levels of Compound 1 (45 mg qHS Cohort 1 and 80 mg qHS Cohort, i.e., once daily administration at bedtime) administered for 7 days inpatient followed by 7 days outpatient. Compound 1 was administered at 4 p.m. on Day 1 in order to collect post-dosing PK samples that could not be collected with qHS dosing.
(§1) In Part A, participants were administered daily doses of Compound 1 (45 mg Cohort and 80 mg Cohort) at 4 p.m. on Day 1 and qHS on all other study days for 7 days inpatient followed by 7 days outpatient (with subsequent Cohorts receiving up to 120 mg qHS). Participants checked into the clinic on Day 1. During this period the following assessments were performed: adverse event assessments, vital signs, physical examinations, blood and urine samples for safety assessments, ECGs, C-SSRS assessments, blood samples for PK, and efficacy assessments (HAM-D, MADRS, HAM-A, CGI [CGI-S and CGI-I], PSQI, and SDQ). Baseline assessments occurred on Day 1 prior to administration of study drug. On Day 8, prior to discharge, participants were supplied with sufficient Compound 1 to complete 7 days of dosing.
Patients were administered daily doses of Compound 1 for 7 days inpatient followed by 7 days outpatient.
In the 45 mg Cohort, patients were administered once daily dose of 45 mg of Compound 1 at bedtime for 7 days inpatient followed by once daily dose of 45 mg of Compound 1 at bedtime for 7 days outpatient.
In the 80 mg Cohort, patients were administered once daily dose of 80 mg of Compound 1 at bedtime for 7 days inpatient followed by once daily dose of 80 mg of Compound 1 at bedtime for 7 days outpatient.
Part A: In Part A, HAM-D, MADRS, HAM-A, CGI-S, and CGI-I values were collected in the morning of Days 1, 2, 3, 4, 5, 6, 7, 8, 15, 21 and 28. PSQI and SDQ values will be collected on Days 1, 8, 15, 21 and 28. Part B: In Part B, HAM-D, MADRS, HAM-A, CGI-S, CGI-I, PSQI and SDQ values will be collected on the days described for Part A.
HAM-D Response was defined as a reduction from baseline of ≥50% in total HAM-D score. HAM-D remission was defined as a total HAM-D score of ≤7.
Efficacy analysis: For both parts of the clinical trial, the HAM-D total score and change from baseline values will be summarized by treatment group and time point. In addition, the change from baseline in HAM-D total score will also be analyzed using paired t-tests or similar methods. The null hypothesis of this test is that the mean difference in HAM-D total score between paired observations (i.e., pre- and post-treatment) is zero. Similar analysis methods will be used for all secondary and exploratory efficacy variables.

[3] = test system: GABAA receptors in the brain; assay: Quantitative EEG (qEEG) alpha- and beta-band power in Phase 1 MAD trial
Method: Pharmacodynamic (PD) effects of first dose and steady state Compound 1 concentrations on wake electroencephalograms (EEGs) were studied. Standard 16 channel continuous EEGs were obtained at the following time points: Day-1, Day 1 (1 hour after dosing), and Day 14 (1 hour after dosing).
The effect of Compound 1 on the quantitative EEG (qEEG) was measured in a Phase 1 multiple ascending dose (MAD) trial to understand the pharmacodynamic effect of Compound 1 on GABAA receptor activation. The frequency and amplitude of the detected electrical signals in response to treatment with a brain-active compound provide insights into brain function and brain state (e.g., awake, deep sleep, etc.) or pharmacological response. For instance, changes in power in the beta-band frequency can be used as a pharmacodynamic biomarker of GABAA receptor activation in response to a brain active compound.
EEG was recorded for 5 minutes in quiet eyes open condition using a standard 10-20 EEG electrode placement system at pre-dose and 1, 2, 4, 8 and 24 hours after dosing. Each lead was referenced to the Oz electrode. Artifacts were removed via visual inspections. EEG spectra were computed using Fourier transformation. The alpha-band frequency was set to 8.5-12.5 Hz, the beta-band frequency was set to 12.5 to 30 Hz. The ratio between each post-dose value and the associated pre-dose value for each electrode was used to calculate the fold EEG change in each frequency band so that a ratio of 1 represents no change from baseline. The mean of the central 9 electrodes was used for each subject and timepoint for final analysis.

[4] = Safety and tolerability in MDD patients (Part A); conditions: 80 mg once daily for 14 days in MDD patients
Method: as §1

[5] = oral suspension 45 mg and 60 mg
[6] = 30 mg, one hour post-dose on Day 1, healthy volunteers
[7] = 60 mg, one hour post-dose on Day 1, healthy volunteers
[8] = healthy volunteers, days 1 and 14

COC[C@@]1(O)CC[C@@]2(C)[C@@H](CC[C@@H]3[C@@H]2CC[C@]2(C)[C@@H](C(=O)Cn4ccnc4)CC[C@@H]32)C1 [Compound 1, 3α-Hydroxy-3β-methoxymethyl-21-(1′-imidazolyl)-5α-pregnan-20-one]
AUCinf ([1]; 45 mg): 1880 ng·h/mL
Cmax ([1]; 45 mg): 157 ng/mL
AUC(0-inf) ([1]; 45 mg): 1800 ng·h/mL
Cmax ([1]; 45 mg, Cmax): 207 ng/mL
Tmax ([1]; 45 mg): 1.5 h
AUCinf ([1]; 60 mg): 2930 ng·h/mL
Cmax ([1]; 60 mg): 249 ng/mL
AUC(0-inf) ([1]; 60 mg): 2800 ng·h/mL
Cmax ([1]; 60 mg, Cmax): 282 ng/mL
Tmax ([1]; 60 mg): 1.5 h
half-life ([1]; oral suspension 45 mg and 60 mg, 4 p.m. and 8 p.m., range, read-out: Mean t1/2): 11.1 to 12.6 h
half-life ([1]; oral suspension 60 mg 4 PM (4 h after lunch, 2 h before dinner), N = 15, Mean, read-out: t1/2 (converted)): 12 h
t1/2 ([1]; oral suspension 45 mg 4 PM (4 h after lunch, 2 h before dinner), N = 16, Mean): 12.6 h
t1/2 ([1]; oral suspension 45 mg 8 PM (4 h after dinner), N = 15, Mean): 11.3 h
Cmax at 8 p.m. as compared to 4 p.m. [1, 5]: reduced
tmax at 8 p.m. as compared to 4 p.m. [1, 5]: delayed
AUCinf between the 2 administration times ([1]; oral suspension 45 mg and 60 mg, 4 p.m. vs 8 p.m.): comparable
t1/2 ([1]; oral suspension 60 mg 8 PM (4 h after dinner), N = 15, Mean): 11.1 h
first post-dose timepoint with appearance of concentrations ([1]; suspension at 4 p.m. or 8 p.m.): 0.25 h
last evaluated timepoint at which concentrations remained detectable ([1]; suspension at 4 p.m. or 8 p.m.): 72 h
mean concentrations following administration at 4 p.m. as compared to 8 p.m. ([1]; within the first 2 to 3 hours, 45 mg and 60 mg): higher
patients meeting the HAM-D Response or Remission criterion ([2]; 45 mg Cohort (qHS), Day 7): 11 of the 13
patients meeting the HAM-D Response or Remission criteria ([2]; 45 mg Cohort (qHS)): 8 of the 13
patients meeting the HAM-D Response or Remission criteria ([2]; 80 mg Cohort (qHS)): 6 of the 7
Efficacy (reduction Mean Change from Baseline in HAM-D score) ([2]; as monotherapy (no background antidepressant) and in combination with another antidepressant): observed
symptoms of MDD ([2]; daily dose of 45 mg or 80 mg): reduced symptoms of moderate to severe MDD
Efficacy (reduction Mean Change from Baseline in HAM-D score) ([2]; patients in first course of antidepressant treatment and patients that failed previous courses): observed
effects on the qEEG alpha and beta power at Day 14 ([3]; 30 mg and 60 mg QD): sustained
average increase in qEEG alpha power compared to baseline [3, 6]: approximately 1.5 fold
average increase in qEEG beta power compared to baseline [3, 6]: ~1.6 fold
increase in qEEG alpha power compared to baseline [3, 7]: 2.6 fold
increase in qEEG beta power compared to baseline [3, 7]: 2.8 fold
increases in beta power ([3]; MAD study, up to 60 mg): up to 2.8 fold
power of the alpha-band frequency (qEEG) [3, 8]: marked increases; also recorded: markedly increase
power of the beta-band frequency (qEEG) [3, 8]: marked increases; also recorded: markedly increase
tolerability [4]: well tolerated with no change in Adverse Event profile; also recorded: well-tolerated
